According to US4010184A, “Thienodiazepines” (Yoshitomi Pharmaceutical Industries, Ltd., priority 1973, dated 1977):

What was measured:
[1] = tested on: mice (tail electrical stimulation, absence of squeak); test: Analgesic Activity (Electrical Stimulation Method); format: in vivo, mouse; conditions: male mice, intraperitoneal, tail stimulated 5 s, 25 volts, 40 msec., 1 cps, determined graphically; for ED50: Mus musculus, ip
Description: 1. Analgesic Activity (Electrical Stimulation Method)
The test was performed essentially in accordance with the methods described in "Journal of the Pharmaceutical Society of Japan," vol 73, p. 212 ff. (1953) and "Folia Pharmacologica Japonica," vol. 65, p. 378 ff. (1969).
Test compound was administered intraperitoneally to groups consisting 10 male mice. The tail of the mouse was electrically stimulated for 5 seconds with interrupted direct current (25 volts, 40 msec., 1 cps.). When no squeak was observed during the electrical stimulation, analgesic effect was evaluated to be positive.
The ED50 (50% effective dose) was determined graphically.

[2] = tested on: mice (pentylenetetrazole lethality); test: Anticonvulsant Activity (pentylenetetrazole-induced death); format: in vivo, mouse; conditions: intraperitoneal; for Anticonvulsant Activity %-Inhibition: 15 min before pentylenetetrazole 150 mg/kg s.c., deaths within 3 hours, at dose equal to analgesic ED50: 40 (1, 2), 30 (3), 28 (4), 200 (5), 170 (6), 200 (7) mg/kg; for A/B (A: ED50 value for analgesic activity; B: ED50 value for anticonvulsant activity): ratio of ED50 values
Description: 2. Anticonvulsant Activity
Pentylenetetrazole (150 mg/kg) was administered subcutaneously to groups consisting 6 mice 15 minutes after the intraperitoneal administration of the test compound. The number of dead mice were counted within 3 hours after the administration of pentylenetetrazole. On one hand, the %-inhibition at the dose equal to the ED50 dose for analgesic activity was determined, and on the other, the ED50, the dose required to suppress the lethal rate to 50%, was determined graphically.

Compound	Analgesic Activity ED50 [1]	Anticonvulsant Activity %-Inhibition [2]	A/B (A: ED50 value for analgesic activity; B: ED50 value for anticonvulsant activity) [2]	ED50 [1]
5-(3,4-dichlorophenyl)-7-ethyl-1-dimethylcarbamoyl-2,3-dihydro-1H-thieno[2,3-e][1,4]diazepine hydrochloride [Example 6]	170 mg/kg			
5-o-chlorophenyl-7-ethyl-1-(4-methyl-1-piperazinylcarbonyl)-2,3-dihydro-1H-thieno[2,3-e][1,4]diazepine dihydrochloride 1/2 -hydrate [Example 4]	28 mg/kg			
5-o-chlorophenyl-7-ethyl-1-piperidinocarbonyl-2,3-dihydro-1H-thieno[2,3-e][1,4]diazepine hydrochloride [Example 3]		0%	< 0.4	
7-ethyl-1-dimethylcarbamoyl-5-phenyl-2,3-dihydro-1H-thieno[2,3-e][1,4]diazepine hydrochloric [Example 5]	> 200 mg/kg			
Cc1c(N(C)C)c(=O)n(-c2ccccc2)n1C [Aminopyrine, reference compound]				100 mg/kg
CCc1cc2c(s1)N(C(=O)N(C)C)CCN=C2c1ccccc1Cl.Cl [Test Compound 1, 5-o-chlorophenyl-7-ethyl-1-dimethylcarbamoyl-2,3-dihydro-1H-thieno[2,3-e][1,4]diazepine hydrochloride]		0%	< 0.4	40 mg/kg
CCc1cc2c(s1)N(C(=O)N(C)C)CCN=C2c1ccc(Cl)cc1.Cl [Test Compound 2, 5-p-chlorophenyl-7-ethyl-1-dimethylcarbamoyl-2,3-dihydro-1H-thieno[2,3-e][1,4]diazepine hydrochloride]		0%	< 0.4	40 mg/kg
CCc1cc2c(s1)N(C(=O)NC)CCN=C2c1ccccc1Cl [Test Compound 7, 5-o-chlorophenyl-7-ethyl-1-methylcarbamoyl-2,3-dihydro-1H-thieno[2,3-e][1,4]diazepine, reference compound]		100%	2 - 4	200 mg/kg
